From patent US20030118577A1, “Use of analogues of superoxide dismutase for treating hepatocellular insufficiencies” (priority 2000, published 2003)

Test system: acute hepatic insufficiency induced by acetaminophen
Assay: Survival of mice after intraperitoneal acetaminophen (acute hepatic insufficiency)
Method: The intraperitoneal injection of acetaminophen into mice induces a severe hepatotoxicity, the degree of which may be evaluated by the survival of the animals, measuring transaminase activities, and macroscopic and microscopic examination of the livers.
The acetaminophen in solution at 100 mg/ml in PBS at pH 7.4 is administered by the intraperitoneal route.
In a first series of experiments, a group of mice received a dose of 1000 mg/kg of acetaminophen; a second group received a dose of 1000 mg/kg of acetaminophen and a dose of 10 mg/kg of MnTBAP administered either 2 h before the acetaminophen or 6 h after; a control group received either MnTBAP alone (10 mg/kg), or PBS alone.
The survival of the animals is monitored for 24 hours after the administration of acetaminophen.
The effect of N-acetyl-L-cysteine (NAC), of CuDIPS, and of MnTBAP on the survival of mice after intraperitoneal injection of 1000 mg/kg of acetaminophen (APAP) was compared.
MnTBAP, NAC, or CuDIPS are administered in the form of a bolus, preventively, 2 hours before (P) or, curatively, 6 hours after (C) the acetaminophen.
The survival of the animals is monitored for 24 hours after administration of acetaminophen.

`CC(=O)N[C@@H](CS)C(=O)O` [NAC, N-acetyl-L-cysteine] was tested, and the “activity on survival, curative versus preventive administration” value (APAP 1000 mg/kg, 6 hours after (C) or 2 hours before (P)) was “only active preventively”, the “percentage of surviving animals” value (Group X: APAP 1000 mg/kg, NAC 100 mg/kg (P), time 0 h) was 100% and the “percentage of surviving animals” value (Group X: APAP 1000 mg/kg, NAC 100 mg/kg (P), time 6 h) was 100%. For the same compound, the “percentage of surviving animals” value (Group X: APAP 1000 mg/kg, NAC 100 mg/kg (P), time 8 h) was 100%, the “percentage of surviving animals” value (Group X: APAP 1000 mg/kg, NAC 100 mg/kg (P), time 9 h) was 100% and the “percentage of surviving animals” value (Group X: APAP 1000 mg/kg, NAC 100 mg/kg (P), time 10 h) was 100%. The “percentage of surviving animals” value (Group X: APAP 1000 mg/kg, NAC 100 mg/kg (P), time 11 h) was 100%, the “percentage of surviving animals” value (Group X: APAP 1000 mg/kg, NAC 100 mg/kg (P), time 12 h) was 100% and the “percentage of surviving animals” value (Group X: APAP 1000 mg/kg, NAC 100 mg/kg (P), time 13 h) was 100%. The “percentage of surviving animals” value (Group X: APAP 1000 mg/kg, NAC 100 mg/kg (P), time 14 h) was 90%, the “percentage of surviving animals” value (Group X: APAP 1000 mg/kg, NAC 100 mg/kg (P), time 15 h) was 80% and the “percentage of surviving animals” value (Group X: APAP 1000 mg/kg, NAC 100 mg/kg (P), time 16 h) was 60%. The “percentage of surviving animals” value (Group X: APAP 1000 mg/kg, NAC 100 mg/kg (P), time 17 h) was 60%, the “percentage of surviving animals” value (Group X: APAP 1000 mg/kg, NAC 100 mg/kg (P), time 18 h) was 50% and the “percentage of surviving animals” value (Group X: APAP 1000 mg/kg, NAC 100 mg/kg (P), time 20 h) was 40%. The “percentage of surviving animals” value (Group X: APAP 1000 mg/kg, NAC 100 mg/kg (P), time 22 h) was 40%, the “percentage of surviving animals” value (Group X: APAP 1000 mg/kg, NAC 100 mg/kg (P), time 24 h) was 40% and the “percentage of surviving animals” value (Group XI: APAP 1000 mg/kg, NAC 200 mg/kg (P), time 0 h) was 100%. For the same compound, the “percentage of surviving animals” value (Group XI: APAP 1000 mg/kg, NAC 200 mg/kg (P), time 6 h) was 100%, the “percentage of surviving animals” value (Group XI: APAP 1000 mg/kg, NAC 200 mg/kg (P), time 8 h) was 100% and the “percentage of surviving animals” value (Group XI: APAP 1000 mg/kg, NAC 200 mg/kg (P), time 9 h) was 100%. The “percentage of surviving animals” value (Group XI: APAP 1000 mg/kg, NAC 200 mg/kg (P), time 10 h) was 100%, the “percentage of surviving animals” value (Group XI: APAP 1000 mg/kg, NAC 200 mg/kg (P), time 11 h) was 90% and the “percentage of surviving animals” value (Group XI: APAP 1000 mg/kg, NAC 200 mg/kg (P), time 12 h) was 90%. The “percentage of surviving animals” value (Group XI: APAP 1000 mg/kg, NAC 200 mg/kg (P), time 13 h) was 90%, the “percentage of surviving animals” value (Group XI: APAP 1000 mg/kg, NAC 200 mg/kg (P), time 14 h) was 90% and the “percentage of surviving animals” value (Group XI: APAP 1000 mg/kg, NAC 200 mg/kg (P), time 15 h) was 90%. The “percentage of surviving animals” value (Group XI: APAP 1000 mg/kg, NAC 200 mg/kg (P), time 16 h) was 80%, the “percentage of surviving animals” value (Group XI: APAP 1000 mg/kg, NAC 200 mg/kg (P), time 17 h) was 80% and the “percentage of surviving animals” value (Group XI: APAP 1000 mg/kg, NAC 200 mg/kg (P), time 18 h) was 60%. For the same compound, the “percentage of surviving animals” value (Group XI: APAP 1000 mg/kg, NAC 200 mg/kg (P), time 20 h) was 60%, the “percentage of surviving animals” value (Group XI: APAP 1000 mg/kg, NAC 200 mg/kg (P), time 22 h) was 60% and the “percentage of surviving animals” value (Group XI: APAP 1000 mg/kg, NAC 200 mg/kg (P), time 24 h) was 60%. The “percentage of surviving animals” value (Group XII: APAP 1000 mg/kg, NAC 300 mg/kg (P), time 0 h) was 100%, the “percentage of surviving animals” value (Group XII: APAP 1000 mg/kg, NAC 300 mg/kg (P), time 6 h) was 100% and the “percentage of surviving animals” value (Group XII: APAP 1000 mg/kg, NAC 300 mg/kg (P), time 8 h) was 100%. The “percentage of surviving animals” value (Group XII: APAP 1000 mg/kg, NAC 300 mg/kg (P), time 9 h) was 90%, the “percentage of surviving animals” value (Group XII: APAP 1000 mg/kg, NAC 300 mg/kg (P), time 10 h) was 90% and the “percentage of surviving animals” value (Group XII: APAP 1000 mg/kg, NAC 300 mg/kg (P), time 11 h) was 90%. The “percentage of surviving animals” value (Group XII: APAP 1000 mg/kg, NAC 300 mg/kg (P), time 12 h) was 90%, the “percentage of surviving animals” value (Group XII: APAP 1000 mg/kg, NAC 300 mg/kg (P), time 13 h) was 90% and the “percentage of surviving animals” value (Group XII: APAP 1000 mg/kg, NAC 300 mg/kg (P), time 14 h) was 90%. For the same compound, the “percentage of surviving animals” value (Group XII: APAP 1000 mg/kg, NAC 300 mg/kg (P), time 15 h) was 90%, the “percentage of surviving animals” value (Group XII: APAP 1000 mg/kg, NAC 300 mg/kg (P), time 16 h) was 90% and the “percentage of surviving animals” value (Group XII: APAP 1000 mg/kg, NAC 300 mg/kg (P), time 17 h) was 90%. For the same compound, the “percentage of surviving animals” value (Group XII: APAP 1000 mg/kg, NAC 300 mg/kg (P), time 18 h) was 80%, the “percentage of surviving animals” value (Group XII: APAP 1000 mg/kg, NAC 300 mg/kg (P), time 20 h) was 80% and the “percentage of surviving animals” value (Group XII: APAP 1000 mg/kg, NAC 300 mg/kg (P), time 22 h) was 80%. The “percentage of surviving animals” value (Group XII: APAP 1000 mg/kg, NAC 300 mg/kg (P), time 24 h) was 80%, the “percentage of surviving animals” value (Group XIII: APAP 1000 mg/kg, NAC 100 mg/kg (C), time 0 h) was 100% and the “percentage of surviving animals” value (Group XIII: APAP 1000 mg/kg, NAC 100 mg/kg (C), time 6 h) was 100%. For the same compound, the “percentage of surviving animals” value (Group XIII: APAP 1000 mg/kg, NAC 100 mg/kg (C), time 8 h) was 90%, the “percentage of surviving animals” value (Group XIII: APAP 1000 mg/kg, NAC 100 mg/kg (C), time 9 h) was 80% and the “percentage of surviving animals” value (Group XIII: APAP 1000 mg/kg, NAC 100 mg/kg (C), time 10 h) was 60%. The “percentage of surviving animals” value (Group XIII: APAP 1000 mg/kg, NAC 100 mg/kg (C), time 11 h) was 50%, the “percentage of surviving animals” value (Group XIII: APAP 1000 mg/kg, NAC 100 mg/kg (C), time 12 h) was 50% and the “percentage of surviving animals” value (Group XIII: APAP 1000 mg/kg, NAC 100 mg/kg (C), time 13 h) was 40%. For the same compound, the “percentage of surviving animals” value (Group XIII: APAP 1000 mg/kg, NAC 100 mg/kg (C), time 14 h) was 30%, the “percentage of surviving animals” value (Group XIII: APAP 1000 mg/kg, NAC 100 mg/kg (C), time 15 h) was 20% and the “percentage of surviving animals” value (Group XIII: APAP 1000 mg/kg, NAC 100 mg/kg (C), time 16 h) was 20%. For the same compound, the “percentage of surviving animals” value (Group XIII: APAP 1000 mg/kg, NAC 100 mg/kg (C), time 17 h) was 20%, the “percentage of surviving animals” value (Group XIII: APAP 1000 mg/kg, NAC 100 mg/kg (C), time 18 h) was 10% and the “percentage of surviving animals” value (Group XIII: APAP 1000 mg/kg, NAC 100 mg/kg (C), time 20 h) was 10%. The “percentage of surviving animals” value (Group XIII: APAP 1000 mg/kg, NAC 100 mg/kg (C), time 22 h) was 10%, the “percentage of surviving animals” value (Group XIII: APAP 1000 mg/kg, NAC 100 mg/kg (C), time 24 h) was 10% and the “percentage of surviving animals” value (Group XIV: APAP 1000 mg/kg, NAC 300 mg/kg (C), time 0 h) was 100%. For the same compound, the “percentage of surviving animals” value (Group XIV: APAP 1000 mg/kg, NAC 300 mg/kg (C), time 6 h) was 100%, the “percentage of surviving animals” value (Group XIV: APAP 1000 mg/kg, NAC 300 mg/kg (C), time 8 h) was 100% and the “percentage of surviving animals” value (Group XIV: APAP 1000 mg/kg, NAC 300 mg/kg (C), time 9 h) was 90%. For the same compound, the “percentage of surviving animals” value (Group XIV: APAP 1000 mg/kg, NAC 300 mg/kg (C), time 10 h) was 80%, the “percentage of surviving animals” value (Group XIV: APAP 1000 mg/kg, NAC 300 mg/kg (C), time 11 h) was 80% and the “percentage of surviving animals” value (Group XIV: APAP 1000 mg/kg, NAC 300 mg/kg (C), time 12 h) was 60%. The “percentage of surviving animals” value (Group XIV: APAP 1000 mg/kg, NAC 300 mg/kg (C), time 13 h) was 40%, the “percentage of surviving animals” value (Group XIV: APAP 1000 mg/kg, NAC 300 mg/kg (C), time 14 h) was 40% and the “percentage of surviving animals” value (Group XIV: APAP 1000 mg/kg, NAC 300 mg/kg (C), time 15 h) was 40%. For the same compound, the “percentage of surviving animals” value (Group XIV: APAP 1000 mg/kg, NAC 300 mg/kg (C), time 16 h) was 30%, the “percentage of surviving animals” value (Group XIV: APAP 1000 mg/kg, NAC 300 mg/kg (C), time 17 h) was 30% and the “percentage of surviving animals” value (Group XIV: APAP 1000 mg/kg, NAC 300 mg/kg (C), time 18 h) was 30%. The “percentage of surviving animals” value (Group XIV: APAP 1000 mg/kg, NAC 300 mg/kg (C), time 20 h) was 20%, the “percentage of surviving animals” value (Group XIV: APAP 1000 mg/kg, NAC 300 mg/kg (C), time 22 h) was 20% and the “percentage of surviving animals” value (Group XIV: APAP 1000 mg/kg, NAC 300 mg/kg (C), time 24 h) was 20%.
